Measured values: ChEMBL document CHEMBL4184308, “Melanogenesis inhibitory pregnane glycosides from Cynanchum atratum” (Bioorg Med Chem Lett, 2018)
Activity calls are given as the source filed them. The calls are words filed in the database; no cut-off is given here.

Target: T1, Tyrosinase (Mus musculus) (UniProt P11344)
T1 sequence (whole entry): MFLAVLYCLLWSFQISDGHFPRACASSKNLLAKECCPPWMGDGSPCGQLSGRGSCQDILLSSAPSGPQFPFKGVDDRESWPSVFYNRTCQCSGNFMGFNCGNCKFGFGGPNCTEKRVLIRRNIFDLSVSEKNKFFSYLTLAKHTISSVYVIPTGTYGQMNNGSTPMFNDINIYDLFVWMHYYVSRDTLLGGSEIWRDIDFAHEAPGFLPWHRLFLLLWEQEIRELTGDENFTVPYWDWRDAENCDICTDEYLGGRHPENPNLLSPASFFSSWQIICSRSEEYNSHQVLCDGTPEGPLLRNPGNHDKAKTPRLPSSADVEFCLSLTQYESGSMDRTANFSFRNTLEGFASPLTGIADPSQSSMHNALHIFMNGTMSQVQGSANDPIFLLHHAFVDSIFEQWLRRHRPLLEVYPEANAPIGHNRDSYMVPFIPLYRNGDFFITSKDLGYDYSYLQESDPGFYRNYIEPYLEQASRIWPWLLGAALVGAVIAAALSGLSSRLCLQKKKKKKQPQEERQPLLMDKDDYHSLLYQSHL
Experiment: Inhibition of mouse tyrosinase

inhibition	SMILES
Active	CC(=O)c1c(O)cccc1O
Active	CC(=O)c1cc(O)ccc1O

Target: T1, Tyrosinase (Mus musculus)
Experiment: Inhibition of mouse B16 cells derived tyrosinase at 30 uM

inhibition	SMILES
inactive	CO[C@H]1C[C@H](O[C@@H]2[C@H](C)O[C@@H](O[C@H]3[C@@H](OC)C[C@H](O[C@@H]4CC5=CC[C@H]6C(=O)[C@@](C)(C7=CC(=O)O[C@H]7C)CC[C@@H]6[C@@]5(C)C[C@H]4O)O[C@@H]3C)C[C@@H]2OC)O[C@H](C)[C@H]1O

Test system: B16
Experiment: Inhibition of melanin production in alpha-MSH-stimulated mouse B16 cells incubated for 24 hrs followed by alpha-MSH stimulation for 72 hrs in presence of compound
Format: functional, cell-based

IC50 [µM]	SMILES	inhibition
4	CO[C@H]1[C@@H](O)[C@H](O[C@H]2CC[C@@]3(C)C(=CC[C@H]4C(=O)O[C@@H]5CO[C@]6(C)OC=C(CC[C@@H]43)[C@H]56)C2)O[C@H](C)[C@H]1O[C@H]1C[C@H](OC)[C@H](O[C@H]2C[C@H](OC)[C@H](O)[C@@H](C)O2)[C@H](C)O1	Dose-dependent effect
19	CO[C@H]1[C@@H](O)[C@H](O[C@H]2CC[C@@]3(C)C(=CC[C@H]4C(=O)O[C@@H]5CO[C@]6(C)OC=C(CC[C@@H]43)[C@H]56)C2)O[C@H](C)[C@H]1O[C@H]1C[C@H](OC)[C@H](O)[C@H](C)O1	Dose-dependent effect
41	CO[C@H]1O[C@@]2(C)OC[C@H]3OC(=O)[C@@H]4CC=C5C[C@@H](O[C@@H]6O[C@H](C)[C@@H](O)[C@H](OC)[C@H]6O)CC[C@]5(C)[C@H]4C/C=C/1[C@H]32	–
> 50	CO[C@@H]1[C@@H](O)[C@H](O[C@H]2CC[C@@]3(C)C(=CC[C@H]4C(=O)O[C@@H]5CO[C@]6(C)OC(=O)/C(=C/C[C@@H]43)[C@H]56)C2)O[C@H](C)[C@H]1O	–

Second part, the molecule before the results:

SMILES	IC50 [µM]	inhibition
CO[C@H]1C[C@H](O[C@@H]2[C@H](C)O[C@@H](O[C@H]3[C@@H](OC)C[C@H](O[C@@H]4CC5=CC[C@H]6C(=O)[C@@](C)(C7=CC(=O)O[C@H]7C)CC[C@@H]6[C@@]5(C)C[C@H]4O)O[C@@H]3C)C[C@@H]2OC)O[C@H](C)[C@H]1O	21	Dose-dependent effect
CO[C@H]1C[C@H](O[C@@H]2[C@H](C)O[C@@H](O[C@H]3[C@@H](OC)C[C@H](O[C@@H]4CC5=CC[C@H]6C(=O)[C@@](C)(C7=CC(=O)O[C@@H]7C)CC[C@@H]6[C@@]5(C)C[C@H]4O)O[C@@H]3C)C[C@@H]2OC)O[C@H](C)[C@H]1O	33	Dose-dependent effect
CO[C@H]1C[C@H](O[C@@H]2CC3=CC[C@H]4C(=O)[C@@](C)(C5=CC(=O)O[C@H]5C)CC[C@@H]4[C@@]3(C)C[C@H]2O)O[C@H](C)[C@H]1O	> 50	–
